Test results: US11351173B2, “Substituted pyrrolo[1,2-a]pyrimidines and their use in the treatment of medical disorders” (Bial—R&D Investments, S.A., priority 2014, dated 2022)
≈ marks a conversion by molar mass, not a printed value.

Legend:
[1] = Compound solubility in water; conditions: water, Compound Solubility in Water, in water
[2] = target: T1, glucocerebrosidase (Gcase) (Homo sapiens, UniProt P04062); test: Glucocerebrosidase (Gcase) activation assay, 4-methylumbelliferyl-beta-D-glucopyranoside substrate, fluorescence readout; type: biochemical; conditions: for activation at 0.1 µM: test compound at 0.1 μM, read-out: Percent Gcase Activation, 0.1 μM Test Compound; for activation at 1 µM: test compound at 1.0 μM, read-out: Percent Gcase Activation, 1 μM Test Compound
T1 construct: micellar solution containing 10 nM GCase and 100 nM saposin C
T1 sequence (P04062 40-536): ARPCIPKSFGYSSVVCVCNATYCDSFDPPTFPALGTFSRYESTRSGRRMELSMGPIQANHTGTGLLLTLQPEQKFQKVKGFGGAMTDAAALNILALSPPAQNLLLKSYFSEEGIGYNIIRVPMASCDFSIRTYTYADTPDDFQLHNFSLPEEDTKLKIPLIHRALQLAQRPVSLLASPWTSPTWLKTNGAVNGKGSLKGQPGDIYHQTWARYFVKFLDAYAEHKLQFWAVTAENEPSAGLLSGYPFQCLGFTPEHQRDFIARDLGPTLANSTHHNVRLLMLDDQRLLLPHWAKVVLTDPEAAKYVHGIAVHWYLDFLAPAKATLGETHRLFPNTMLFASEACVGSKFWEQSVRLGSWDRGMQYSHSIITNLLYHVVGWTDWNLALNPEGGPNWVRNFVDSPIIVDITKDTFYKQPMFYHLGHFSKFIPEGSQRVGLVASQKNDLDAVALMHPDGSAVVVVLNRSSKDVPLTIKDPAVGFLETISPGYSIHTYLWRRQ
Summary of the method: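 10 nM GCase with 100 nM saposin C pre-incubated 30 min with compound in pH 4.7 phosphate/citrate PS/triton micelles, then mixed 1:1 with 2 mM 4-methylumbelliferyl-β-glucoside micellar substrate (stock level). Run 15 min at room temperature, stopped at pH 12.5; fluorescence 365/440 nm. Screened at 1.0 and 0.1 μM; 8-point curves from 5 μM.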

Cc1cc(C)n2ccc(C(=O)NC3CCCc4ccc(C#N)cc43)c2n1 (stereo not drawn) [III-209]
solubility [1]: 2.3 µg/mL (≈ 6.68 µM) | activation at 0.1 µM [2]: 10 to 20% | activation at 1 µM [2]: > 60%

Cc1cc(C)n2ccc(C(=O)NC3COCc4ccccc43)c2n1 (stereo not drawn) [III-210]
solubility [1]: 3.3 µg/mL (≈ 10.3 µM) | activation at 0.1 µM [2]: 10 to 20% | activation at 1 µM [2]: > 60%

Cc1cc(C)n2ccc(C(=O)NC3CCOc4ccccc43)c2n1 (stereo not drawn) [III-211]
solubility [1]: 3.8 µg/mL (≈ 11.8 µM) | activation at 0.1 µM [2]: 10 to 20% | activation at 1 µM [2]: > 60%

COC1CCC(NC(=O)c2ccn3c(C)cc(C)nc23)c2ccccc21 (stereo not drawn) [III-212]
solubility [1]: 13.6 µg/mL (≈ 38.9 µM) | activation at 0.1 µM [2]: 10 to 20% | activation at 1 µM [2]: > 60%

C#Cc1ccc(NC(=O)c2ccn3c(C)cc(C)nc23)c(CO)c1 [III-213]
solubility [1]: 0.7 µg/mL (≈ 2.19 µM) | activation at 0.1 µM [2]: < 10% | activation at 1 µM [2]: < 30%

Cc1cc(C)n2ccc(C(=O)Nc3ccc(Cl)c(-c4cnco4)c3)c2n1 [III-214]
solubility [1]: 0.01 µg/mL (≈ 0.0273 µM) | activation at 0.1 µM [2]: > 20% | activation at 1 µM [2]: > 60%

Cc1cc(C)n2ccc(C(=O)NC3Cc4ccccc4C3)c2n1 [III-215]
solubility [1]: 0.3 µg/mL (≈ 0.982 µM) | activation at 0.1 µM [2]: 10 to 20% | activation at 1 µM [2]: > 60%

Cc1cc(C)n2ccc(C(=O)NC3CCc4ccccc43)c2n1 (stereo not drawn) [III-216]
solubility [1]: 1.8 µg/mL (≈ 5.89 µM) | activation at 0.1 µM [2]: > 20% | activation at 1 µM [2]: > 60%

Cc1cc(C)n2ccc(C(=O)N[C@H]3CCc4ccccc43)c2n1 [III-217]
solubility [1]: 0.2 µg/mL (≈ 0.655 µM) | activation at 0.1 µM [2]: > 20% | activation at 1 µM [2]: > 60%

Cc1cc(C)n2ccc(C(=O)N[C@@H]3CCc4ccccc43)c2n1 [III-218]
solubility [1]: 0.2 µg/mL (≈ 0.655 µM) | activation at 0.1 µM [2]: > 20% | activation at 1 µM [2]: > 60%

Cc1cc(C)n2ccc(C(=O)Nc3ccc(C4=NCCO4)cc3Cl)c2n1 [III-219]
solubility [1]: 0.9 µg/mL (≈ 2.44 µM) | activation at 0.1 µM [2]: > 20% | activation at 1 µM [2]: > 60%

Cc1cc(C)n2ccc(C(=O)Nc3cccc4c3CCC4)c2n1 [III-220]
solubility [1]: 0.2 µg/mL (≈ 0.655 µM) | activation at 0.1 µM [2]: > 20% | activation at 1 µM [2]: > 60%

Cc1cc(C)n2ccc(C(=O)Nc3ccc4c(c3)C(Oc3nnc(C)o3)CC4)c2n1 (stereo not drawn) [III-221]
solubility [1]: 0.1 µg/mL (≈ 0.248 µM) | activation at 0.1 µM [2]: < 10% | activation at 1 µM [2]: 30 to 60%

Cc1cc(C)n2ccc(C(=O)Nc3ccc4c(c3)C(O)CC4)c2n1 (stereo not drawn) [III-222]
solubility [1]: 0.5 µg/mL (≈ 1.56 µM) | activation at 0.1 µM [2]: < 10% | activation at 1 µM [2]: < 30%

Cc1cc(C)n2ccc(C(=O)Nc3cnc(-c4ncccn4)c(Cl)c3)c2n1 [III-223]
solubility [1]: 3.2 µg/mL (≈ 8.45 µM) | activation at 0.1 µM [2]: < 10% | activation at 1 µM [2]: < 30%

Cc1cc(C)n2ccc(C(=O)NC3CCOc4c(F)cccc43)c2n1 (stereo not drawn) [III-224]
solubility [1]: 1.5 µg/mL (≈ 4.42 µM) | activation at 0.1 µM [2]: > 20% | activation at 1 µM [2]: > 60%

Cc1cc(C)n2ccc(C(=O)NC3CCOc4ccc(F)cc43)c2n1 (stereo not drawn) [III-225]
solubility [1]: 1.8 µg/mL (≈ 5.3 µM) | activation at 0.1 µM [2]: > 20% | activation at 1 µM [2]: > 60%

Cc1cc(C)n2ccc(C(=O)NC3CCCCc4ccccc43)c2n1 (stereo not drawn) [III-226]
solubility [1]: 1.6 µg/mL (≈ 4.8 µM) | activation at 0.1 µM [2]: > 20% | activation at 1 µM [2]: > 60%

Cc1cc(C)n2ccc(C(=O)NC3CCCc4ccncc43)c2n1 (stereo not drawn) [III-227]
solubility [1]: 15.7 µg/mL (≈ 49 µM) | activation at 0.1 µM [2]: < 10% | activation at 1 µM [2]: < 30%

Cc1cc(C)n2ccc(C(=O)NC3CCc4ccccc4C3)c2n1 (stereo not drawn) [III-228]
solubility [1]: 0.9 µg/mL (≈ 2.82 µM) | activation at 0.1 µM [2]: > 20% | activation at 1 µM [2]: > 60%

Cc1cc(C)n2ccc(C(=O)NC3CCC4OCOC4C3)c2n1 (stereo not drawn) [III-229]
solubility [1]: 28.5 µg/mL (≈ 90.4 µM) | activation at 0.1 µM [2]: < 10% | activation at 1 µM [2]: < 30%
